Values of other authors, collected in PMC12291913 (Antibiotics, 2025).
Values after ≈ are worked out from the molar mass of the structure shown.

Key:
Settings in all cases: drug alone, previous study ref 17; cited from earlier work
[1] = test system: M. avium clinical isolate Koav 3 (GyrA Asp95Gly)
[2] = test system: M. avium clinical isolate Koav 11 (GyrA Asp95Tyr)
[3] = test system: M. avium clinical isolate Koav 13 (GyrA Asp95Gly)
[4] = test system: M. avium clinical isolate Cl-A-2 (GyrA Asp95Tyr)
[5] = test system: M. avium clinical isolate Koav 1 (WT)
[6] = test system: M. avium clinical isolate Koav 2 (WT)
[7] = test system: M. avium clinical isolate Koav 15 (WT)
[8] = test system: M. avium clinical isolate Koav 19 (WT)
[9] = test system: M. avium clinical isolate Koav 20 (WT)
[10] = test system: M. avium clinical isolate Koav 21 (WT)
[11] = test system: M. avium clinical isolate Koav 25 (WT)

Compound: C[C@H]1COc2c(N3CCN(C)CC3)c(F)cc3c(=O)c(C(=O)O)cn1c23 [LVX, levofloxacin]
- MIC [1]: 64 µg/mL (≈ 177 µM)
- MIC [2]: 8 µg/mL (≈ 22.1 µM)
- MIC [3]: 128 µg/mL (≈ 354 µM)
- MIC [4]: 64 µg/mL (≈ 177 µM)
- MIC [5]: <0.5 µg/mL
- MIC [6]: 2 µg/mL (≈ 5.53 µM)
- MIC [7]: 4 µg/mL (≈ 11.1 µM)
- MIC [8]: 2 µg/mL (≈ 5.53 µM)
- MIC [9]: <0.5 µg/mL
- MIC [10]: 4 µg/mL (≈ 11.1 µM)
- MIC [11]: 4 µg/mL (≈ 11.1 µM)
